Experimental data reported in the NIST ThermoML archive (doi:10.1021/je050498q).
± gives the expanded uncertainty stated by the source.

Test: refractive index (Na D-line) (dimensionless); wn = mass fraction of the nth substance listed
Conditions: 101 kPa, Liquid

O=C([O-])[C@H](O)[C@@H](O)C(=O)[O-].[Na+].[Na+] [disodium L-tartrate] + O
refractive index (308.15 K, w1 = 0.0099): 1.3331 ± 0.0007
refractive index (308.15 K, w1 = 0.0192): 1.3346 ± 0.0007
refractive index (308.15 K, w1 = 0.0282): 1.3363 ± 0.0007
refractive index (308.15 K, w1 = 0.0371): 1.3378 ± 0.0007
refractive index (308.15 K, w1 = 0.046): 1.3393 ± 0.0007
refractive index (308.15 K, w1 = 0.0547): 1.3408 ± 0.0007
refractive index (308.15 K, w1 = 0.0625): 1.3421 ± 0.0007
refractive index (308.15 K, w1 = 0.0714): 1.3435 ± 0.0007
refractive index (308.15 K, w1 = 0.0793): 1.3449 ± 0.0007
refractive index (308.15 K, w1 = 0.0872): 1.3462 ± 0.0007
refractive index (308.15 K, w1 = 0.0948): 1.3475 ± 0.0007
refractive index (308.15 K, w1 = 0.1026): 1.3488 ± 0.0007
refractive index (308.15 K, w1 = 0.1098): 1.35 ± 0.0007
refractive index (308.15 K, w1 = 0.1169): 1.3512 ± 0.0007
refractive index (308.15 K, w1 = 0.1223): 1.3523 ± 0.0007
refractive index (308.15 K, w1 = 0.1314): 1.3537 ± 0.0006
refractive index (308.15 K, w1 = 0.1361): 1.3545 ± 0.0006
refractive index (308.15 K, w1 = 0.1437): 1.356 ± 0.0006
refractive index (308.15 K, w1 = 0.1514): 1.3572 ± 0.0006
refractive index (308.15 K, w1 = 0.1577): 1.3582 ± 0.0006
refractive index (308.15 K, w1 = 0.1646): 1.3596 ± 0.0006
refractive index (308.15 K, w1 = 0.1697): 1.3606 ± 0.0006
refractive index (308.15 K, w1 = 0.1769): 1.3617 ± 0.0006
refractive index (308.15 K, w1 = 0.1825): 1.3627 ± 0.0006
refractive index (308.15 K, w1 = 0.1886): 1.3637 ± 0.0006
refractive index (308.15 K, w1 = 0.1941): 1.3646 ± 0.0006
refractive index (308.15 K, w1 = 0.1996): 1.3655 ± 0.0006
refractive index (308.15 K, w1 = 0.2048): 1.3664 ± 0.0006
refractive index (308.15 K, w1 = 0.2116): 1.3675 ± 0.0006
refractive index (308.15 K, w1 = 0.2167): 1.3685 ± 0.0006
refractive index (308.15 K, w1 = 0.2221): 1.3696 ± 0.0006
refractive index (308.15 K, w1 = 0.2281): 1.3707 ± 0.0006
refractive index (308.15 K, w1 = 0.2328): 1.3715 ± 0.0006
refractive index (308.15 K, w1 = 0.243): 1.3731 ± 0.0006
refractive index (308.15 K, w1 = 0.2493): 1.3744 ± 0.0006
refractive index (308.15 K, w1 = 0.2577): 1.3759 ± 0.0006
refractive index (308.15 K, w1 = 0.2622): 1.3765 ± 0.0006
refractive index (308.15 K, w1 = 0.2681): 1.3777 ± 0.0006
refractive index (308.15 K, w1 = 0.2757): 1.3791 ± 0.0006
refractive index (308.15 K, w1 = 0.2859): 1.3809 ± 0.0006
refractive index (308.15 K, w1 = 0.2979): 1.3829 ± 0.0006
refractive index (308.15 K, w1 = 0.3085): 1.3848 ± 0.0006
refractive index (318.15 K, w1 = 0.0099): 1.3318 ± 0.0007
refractive index (318.15 K, w1 = 0.0192): 1.3335 ± 0.0007
refractive index (318.15 K, w1 = 0.0282): 1.3351 ± 0.0007
refractive index (318.15 K, w1 = 0.0371): 1.3367 ± 0.0007
refractive index (318.15 K, w1 = 0.046): 1.3381 ± 0.0007
refractive index (318.15 K, w1 = 0.0547): 1.3396 ± 0.0007
refractive index (318.15 K, w1 = 0.0625): 1.341 ± 0.0007
refractive index (318.15 K, w1 = 0.0714): 1.3425 ± 0.0007
refractive index (318.15 K, w1 = 0.0793): 1.3439 ± 0.0007
refractive index (318.15 K, w1 = 0.0872): 1.3452 ± 0.0007
refractive index (318.15 K, w1 = 0.0948): 1.3464 ± 0.0007
refractive index (318.15 K, w1 = 0.1026): 1.3479 ± 0.0007
refractive index (318.15 K, w1 = 0.1098): 1.349 ± 0.0007
refractive index (318.15 K, w1 = 0.1169): 1.3502 ± 0.0007
refractive index (318.15 K, w1 = 0.1223): 1.3513 ± 0.0007
refractive index (318.15 K, w1 = 0.1314): 1.3526 ± 0.0006
refractive index (318.15 K, w1 = 0.1361): 1.3536 ± 0.0006
refractive index (318.15 K, w1 = 0.1437): 1.3548 ± 0.0006
refractive index (318.15 K, w1 = 0.1514): 1.3562 ± 0.0006
refractive index (318.15 K, w1 = 0.1577): 1.3573 ± 0.0006
refractive index (318.15 K, w1 = 0.1646): 1.3587 ± 0.0006
refractive index (318.15 K, w1 = 0.1697): 1.3595 ± 0.0006
refractive index (318.15 K, w1 = 0.1769): 1.3607 ± 0.0006
refractive index (318.15 K, w1 = 0.1825): 1.3616 ± 0.0006
refractive index (318.15 K, w1 = 0.1886): 1.3627 ± 0.0006
refractive index (318.15 K, w1 = 0.1941): 1.3636 ± 0.0006
refractive index (318.15 K, w1 = 0.1996): 1.3644 ± 0.0006
refractive index (318.15 K, w1 = 0.2048): 1.3654 ± 0.0006
refractive index (318.15 K, w1 = 0.2116): 1.3666 ± 0.0006
refractive index (318.15 K, w1 = 0.2167): 1.3675 ± 0.0006
refractive index (318.15 K, w1 = 0.2221): 1.3684 ± 0.0006
refractive index (318.15 K, w1 = 0.2281): 1.3695 ± 0.0006
refractive index (318.15 K, w1 = 0.2328): 1.3703 ± 0.0006
refractive index (318.15 K, w1 = 0.243): 1.372 ± 0.0006
refractive index (318.15 K, w1 = 0.2493): 1.3732 ± 0.0006
refractive index (318.15 K, w1 = 0.2577): 1.3749 ± 0.0006
refractive index (318.15 K, w1 = 0.2622): 1.3757 ± 0.0006
refractive index (318.15 K, w1 = 0.2681): 1.3765 ± 0.0006
refractive index (318.15 K, w1 = 0.2757): 1.3778 ± 0.0006
refractive index (318.15 K, w1 = 0.2859): 1.3798 ± 0.0006
refractive index (318.15 K, w1 = 0.2979): 1.3819 ± 0.0006
refractive index (318.15 K, w1 = 0.3085): 1.3841 ± 0.0006
